Active and inactive are the calls of the source. The rule behind the calls is not given here.
Columns and labels:
[1] = molecular target: T1, Mitogen-activated protein kinase 8 (Homo sapiens, UniProt P45983); assay: Inhibition of JNK1 (unknown origin)
[2] = molecular target: Mitogen-activated protein kinase 9 (Homo sapiens, UniProt P45984); assay: Inhibition of JNK2 (unknown origin)
[3] = molecular target: T1, Mitogen-activated protein kinase 8; conditions: dose 10.0 nM
[4] = molecular target: T1, Mitogen-activated protein kinase 8; conditions: dose 2.0 nM
[5] = system: A549; assay: Anti-fibrotic activity in human A549 cells assessed as reduction in TGFbeta1-induced fibronectin expression at 0.3 uM by Western blot analysis; type: functional, cell-based
[6] = system: A549; assay: Anti-fibrotic activity in human A549 cells assessed as reduction in TGFbeta1-induced c-Jun expression at 0.3 uM by Western blot analysis; type: functional, cell-based

T1 sequence (P45983 whole entry): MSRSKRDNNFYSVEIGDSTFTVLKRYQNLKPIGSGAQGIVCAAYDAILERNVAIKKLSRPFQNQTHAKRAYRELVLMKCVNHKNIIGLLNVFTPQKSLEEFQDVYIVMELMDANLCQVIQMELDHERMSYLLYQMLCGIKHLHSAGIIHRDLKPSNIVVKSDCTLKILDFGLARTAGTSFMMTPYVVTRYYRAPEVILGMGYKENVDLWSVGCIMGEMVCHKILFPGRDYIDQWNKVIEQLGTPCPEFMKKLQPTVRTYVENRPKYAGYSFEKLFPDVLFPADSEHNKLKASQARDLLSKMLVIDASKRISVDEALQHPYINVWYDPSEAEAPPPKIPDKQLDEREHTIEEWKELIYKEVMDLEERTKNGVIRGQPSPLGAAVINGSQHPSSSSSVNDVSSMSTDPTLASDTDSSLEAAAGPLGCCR
Sequence of Mitogen-activated protein kinase 9 (P45984 whole entry): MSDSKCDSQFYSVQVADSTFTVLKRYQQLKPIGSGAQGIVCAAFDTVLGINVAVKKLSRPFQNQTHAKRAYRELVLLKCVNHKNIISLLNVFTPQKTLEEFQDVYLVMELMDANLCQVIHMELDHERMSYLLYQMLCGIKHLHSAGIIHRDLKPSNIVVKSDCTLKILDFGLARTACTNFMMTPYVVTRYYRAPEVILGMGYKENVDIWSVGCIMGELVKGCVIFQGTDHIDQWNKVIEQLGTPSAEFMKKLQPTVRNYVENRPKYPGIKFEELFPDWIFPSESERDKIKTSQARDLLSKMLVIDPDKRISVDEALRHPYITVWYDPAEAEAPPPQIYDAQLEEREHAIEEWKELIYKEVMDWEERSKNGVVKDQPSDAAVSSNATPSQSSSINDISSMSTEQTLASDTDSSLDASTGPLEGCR

Row | Structure (SMILES) | inhibition [4] | further results
1 | NC(=O)c1ccccc1Nc1nc(Nc2ccccc2)ncc1Br | 18.1% | IC50 [1]: 3 nM; IC50 [2]: 9.4 nM; inhibition [3]: 62.1%
2 | CN1CC2CCC(C1)N2C(=O)c1ccc(Nc2ncc(Br)c(Nc3ccccc3C(N)=O)n2)cc1 | 56.6% | IC50 [1]: 1.5 nM; IC50 [2]: 12.6 nM
3 | NC(=O)c1ccccc1Nc1nc(Nc2ccc(C(=O)N3CCC4(CCOC4)CC3)cc2)ncc1Br | 60.4% | IC50 [1]: 1.4 nM; IC50 [2]: 7.4 nM
4 | NC(=O)c1ccccc1Nc1nc(Nc2ccc(C(=O)N3C4CCC3CNC4)cc2)ncc1Br | 34.4% | –
5 | NC(=O)c1ccccc1Nc1nc(Nc2ccc(C(=O)N3CC4CC(C3)O4)cc2)ncc1Br | 10.8% | –
6 | NC(=O)c1ccccc1Nc1nc(Nc2ccc(C(=O)N3CC4CC3CO4)cc2)ncc1Br (stereo not drawn) | 76.1% | IC50 [1]: 0.8 nM; Activity [5]: Active; IC50 [2]: 8.3 nM; Activity [6]: Active
7 | NC(=O)c1ccccc1Nc1nc(Nc2ccc(C(=O)N3C[C@H]4C[C@@H]3CN4)cc2)ncc1Br | 51.3% | –
8 | NC(=O)c1ccccc1Nc1nc(Nc2ccc(C(=O)N3CCC4(CCCC4)CC3)cc2)ncc1Br | inactive | –
9 | NC(=O)c1ccccc1Nc1nc(Nc2ccc(C(=O)N3CCC4(CC3)OCCO4)cc2)ncc1Br | 15% | –
10 | NC(=O)c1ccccc1Nc1nc(Nc2ccc(C(=O)N3CCC4(CCOCC4)CC3)cc2)ncc1Br | 46.8% | –
11 | NC(=O)c1ccccc1Nc1nc(Nc2ccc(C(=O)N3CCC4(CCNCC4)CC3)cc2)ncc1Br | 33.2% | –
12 | NC(=O)c1ccccc1Nc1nc(Nc2ccc(C(=O)N3CCC4(CCCCC4)CC3)cc2)ncc1Br | inactive | –
13 | NC(=O)c1ccccc1Nc1nc(Nc2ccc(C(=O)N3CC4CCC(C3)N4)cc2)ncc1Br | 45.1% | –
14 | CN1C[C@H]2C[C@@H]1CN2C(=O)c1ccc(Nc2ncc(Br)c(Nc3ccccc3C(N)=O)n2)cc1 | 49.3% | –
15 | NC(=O)c1ccccc1Nc1nc(Nc2ccc(C(=O)N3CCC4(CCNC4)CC3)cc2)ncc1Br | 49.9% | –
16 | NC(=O)c1ccccc1Nc1nc(Nc2ccc(C(=O)N3CCC4(CCCO4)CC3)cc2)ncc1Br | 47.6% | –
17 | NC(=O)c1ccccc1Nc1nc(Nc2ccc(C(=O)N3C4CCC3COC4)cc2)ncc1Br | 46.3% | –

Reference: ChEMBL document CHEMBL6087431, “Discovery of a selective and potent inhibitor of c-Jun N-terminal kinase 1 with anti-pulmonary fibrosis effect” (Bioorg Med Chem Lett, 2025)
